Data published in patent publication US10670605B2, “Cysteine reactive probes and uses thereof” (The Scripps Research Institute, priority 2015, dated 2020).

How the values were obtained:
Assay in all cases: Competitive isoTOP-ABPP in situ (fragment-treated cells)
Type in all cases: cell-based
[1] = target: T1, cysteines in MDA-MB-231 and Ramos cells (Homo sapiens, UniProt P24468)
T1 sequence (P24468 1-414): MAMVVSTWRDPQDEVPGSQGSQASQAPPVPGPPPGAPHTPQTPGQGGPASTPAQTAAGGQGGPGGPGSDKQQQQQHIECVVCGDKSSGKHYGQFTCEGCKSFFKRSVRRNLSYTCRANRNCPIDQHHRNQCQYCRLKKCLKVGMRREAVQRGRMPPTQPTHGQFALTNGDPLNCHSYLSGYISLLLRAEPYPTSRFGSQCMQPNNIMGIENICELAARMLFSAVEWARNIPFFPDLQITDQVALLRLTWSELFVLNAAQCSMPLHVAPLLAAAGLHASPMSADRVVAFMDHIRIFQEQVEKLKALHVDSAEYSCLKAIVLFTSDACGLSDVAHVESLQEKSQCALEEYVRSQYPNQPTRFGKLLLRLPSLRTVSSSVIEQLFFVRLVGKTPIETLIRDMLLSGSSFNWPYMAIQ

[2] = target: T2, cysteines in MDA-MB-231 and Ramos cells (Homo sapiens, UniProt Q9Y570)
T2 sequence (Q9Y570 1-386): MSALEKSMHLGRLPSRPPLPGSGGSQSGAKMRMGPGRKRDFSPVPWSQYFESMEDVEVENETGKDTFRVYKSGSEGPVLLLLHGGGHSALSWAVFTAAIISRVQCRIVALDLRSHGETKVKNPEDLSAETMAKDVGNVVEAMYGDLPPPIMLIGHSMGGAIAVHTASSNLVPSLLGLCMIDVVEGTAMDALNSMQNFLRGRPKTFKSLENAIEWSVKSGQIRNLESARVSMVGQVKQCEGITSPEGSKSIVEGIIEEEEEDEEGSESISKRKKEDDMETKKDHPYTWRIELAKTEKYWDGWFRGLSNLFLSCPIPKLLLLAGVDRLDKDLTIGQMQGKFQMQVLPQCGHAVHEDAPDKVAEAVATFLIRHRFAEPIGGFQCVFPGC

[3] = target: cysteines in MDA-MB-231 and Ramos cells (Homo sapiens, UniProt P53634)
[4] = target: cysteines in MDA-MB-231 and Ramos cells (Homo sapiens, UniProt Q9Y676)
[5] = target: T3, cysteines in MDA-MB-231 and Ramos cells (Homo sapiens, UniProt Q9Y5Y2)
T3 sequence (Q9Y5Y2 1-271): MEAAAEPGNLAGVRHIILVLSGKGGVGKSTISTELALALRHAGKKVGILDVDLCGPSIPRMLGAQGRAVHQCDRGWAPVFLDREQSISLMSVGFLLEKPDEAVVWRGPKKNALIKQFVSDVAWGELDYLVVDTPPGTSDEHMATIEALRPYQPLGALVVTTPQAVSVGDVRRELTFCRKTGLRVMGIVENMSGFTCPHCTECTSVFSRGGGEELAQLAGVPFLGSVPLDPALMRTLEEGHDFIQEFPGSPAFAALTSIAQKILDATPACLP

[6] = target: cysteines in MDA-MB-231 and Ramos cells (Homo sapiens, UniProt Q8NBS9)
[7] = target: cysteines in MDA-MB-231 and Ramos cells (Homo sapiens, UniProt Q96RP9); conditions: for isoTOP-ABPP ratio, cysteine Q96RP9_C153: 200 μM, insitu
[8] = target: cysteines in MDA-MB-231 and Ramos cells (Homo sapiens, UniProt Q9Y3D2)
[9] = target: T4, cysteines in MDA-MB-231 and Ramos cells (Homo sapiens, UniProt Q96RU2)
T4 sequence (Q96RU2 1-1077): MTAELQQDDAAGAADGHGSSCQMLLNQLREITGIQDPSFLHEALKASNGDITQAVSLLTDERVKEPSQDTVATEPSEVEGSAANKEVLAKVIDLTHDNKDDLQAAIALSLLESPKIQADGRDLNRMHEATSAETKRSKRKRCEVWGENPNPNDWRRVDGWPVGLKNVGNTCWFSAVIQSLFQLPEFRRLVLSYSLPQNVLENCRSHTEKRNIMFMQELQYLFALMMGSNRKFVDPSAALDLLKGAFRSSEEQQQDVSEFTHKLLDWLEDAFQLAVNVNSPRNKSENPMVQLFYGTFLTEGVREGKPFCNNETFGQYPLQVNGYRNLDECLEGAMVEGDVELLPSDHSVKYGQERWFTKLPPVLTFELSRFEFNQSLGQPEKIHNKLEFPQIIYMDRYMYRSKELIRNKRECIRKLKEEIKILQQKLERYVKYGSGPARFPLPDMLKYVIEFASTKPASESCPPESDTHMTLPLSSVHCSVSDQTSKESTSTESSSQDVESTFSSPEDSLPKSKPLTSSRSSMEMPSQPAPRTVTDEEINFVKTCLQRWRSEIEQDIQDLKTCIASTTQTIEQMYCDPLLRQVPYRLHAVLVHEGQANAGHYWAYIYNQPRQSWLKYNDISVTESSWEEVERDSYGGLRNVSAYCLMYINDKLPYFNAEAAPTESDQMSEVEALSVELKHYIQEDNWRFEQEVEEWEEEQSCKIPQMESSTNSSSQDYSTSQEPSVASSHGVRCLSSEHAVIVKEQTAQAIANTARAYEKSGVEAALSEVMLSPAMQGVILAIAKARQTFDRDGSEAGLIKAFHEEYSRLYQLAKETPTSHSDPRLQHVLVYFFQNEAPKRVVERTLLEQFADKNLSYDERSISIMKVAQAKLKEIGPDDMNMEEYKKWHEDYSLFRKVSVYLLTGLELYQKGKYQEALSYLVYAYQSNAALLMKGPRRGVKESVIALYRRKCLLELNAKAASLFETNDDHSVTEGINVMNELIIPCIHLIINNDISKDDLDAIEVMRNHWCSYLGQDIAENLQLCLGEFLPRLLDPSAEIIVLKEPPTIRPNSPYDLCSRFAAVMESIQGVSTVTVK

[10] = target: T5, cysteines in MDA-MB-231 and Ramos cells (Homo sapiens, UniProt O00244)
T5 sequence (O00244 1-68): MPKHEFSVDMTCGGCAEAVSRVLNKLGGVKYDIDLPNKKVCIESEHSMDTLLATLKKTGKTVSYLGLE

[11] = target: cysteines in MDA-MB-231 and Ramos cells (Homo sapiens, UniProt Q8WWI1)
Chain of cysteines in MDA-MB-231 and Ramos cells (Homo sapiens, UniProt Q8WWI1) (Q8WWI1 whole entry): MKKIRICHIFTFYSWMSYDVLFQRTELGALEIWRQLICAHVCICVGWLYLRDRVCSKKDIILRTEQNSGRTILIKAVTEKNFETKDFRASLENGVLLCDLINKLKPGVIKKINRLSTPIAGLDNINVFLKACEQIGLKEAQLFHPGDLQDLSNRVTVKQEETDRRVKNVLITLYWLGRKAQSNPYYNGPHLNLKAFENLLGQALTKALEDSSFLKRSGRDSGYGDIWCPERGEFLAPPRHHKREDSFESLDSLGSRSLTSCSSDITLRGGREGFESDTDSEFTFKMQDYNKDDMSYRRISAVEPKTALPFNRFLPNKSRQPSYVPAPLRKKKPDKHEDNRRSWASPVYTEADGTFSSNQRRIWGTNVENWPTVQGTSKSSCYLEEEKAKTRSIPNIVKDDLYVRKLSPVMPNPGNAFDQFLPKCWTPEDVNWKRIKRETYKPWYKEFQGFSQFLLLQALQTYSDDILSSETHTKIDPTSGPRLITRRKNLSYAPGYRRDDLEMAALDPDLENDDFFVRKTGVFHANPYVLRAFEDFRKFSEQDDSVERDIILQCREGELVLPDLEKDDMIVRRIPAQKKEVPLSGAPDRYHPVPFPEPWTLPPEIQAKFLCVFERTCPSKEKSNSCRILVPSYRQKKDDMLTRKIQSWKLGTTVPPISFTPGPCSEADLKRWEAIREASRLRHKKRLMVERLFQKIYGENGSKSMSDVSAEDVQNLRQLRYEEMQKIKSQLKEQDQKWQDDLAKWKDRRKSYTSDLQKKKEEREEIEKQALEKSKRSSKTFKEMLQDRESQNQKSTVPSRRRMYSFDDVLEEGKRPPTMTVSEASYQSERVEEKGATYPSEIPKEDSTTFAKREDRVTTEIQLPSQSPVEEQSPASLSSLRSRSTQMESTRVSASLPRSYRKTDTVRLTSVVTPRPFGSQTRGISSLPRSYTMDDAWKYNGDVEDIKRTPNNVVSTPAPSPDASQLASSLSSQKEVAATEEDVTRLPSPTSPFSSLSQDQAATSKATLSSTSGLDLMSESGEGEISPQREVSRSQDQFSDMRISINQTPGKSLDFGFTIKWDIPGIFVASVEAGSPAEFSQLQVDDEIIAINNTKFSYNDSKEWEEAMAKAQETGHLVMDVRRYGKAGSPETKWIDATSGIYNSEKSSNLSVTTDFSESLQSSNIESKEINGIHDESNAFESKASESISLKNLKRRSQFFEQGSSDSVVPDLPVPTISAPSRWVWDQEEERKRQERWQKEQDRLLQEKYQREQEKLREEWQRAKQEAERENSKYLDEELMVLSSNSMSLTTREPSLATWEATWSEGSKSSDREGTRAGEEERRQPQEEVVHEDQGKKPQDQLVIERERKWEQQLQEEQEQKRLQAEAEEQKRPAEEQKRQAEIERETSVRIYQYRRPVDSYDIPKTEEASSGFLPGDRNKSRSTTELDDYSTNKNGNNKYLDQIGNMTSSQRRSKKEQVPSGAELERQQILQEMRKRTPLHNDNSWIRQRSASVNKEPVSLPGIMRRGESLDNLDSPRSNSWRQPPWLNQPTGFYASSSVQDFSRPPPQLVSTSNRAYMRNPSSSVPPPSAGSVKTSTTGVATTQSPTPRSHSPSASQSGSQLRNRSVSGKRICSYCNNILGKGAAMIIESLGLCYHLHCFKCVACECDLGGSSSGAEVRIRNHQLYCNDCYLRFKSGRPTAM

Chain of cysteines in MDA-MB-231 and Ramos cells (Homo sapiens, UniProt Q8NBS9) (Q8NBS9 33-432): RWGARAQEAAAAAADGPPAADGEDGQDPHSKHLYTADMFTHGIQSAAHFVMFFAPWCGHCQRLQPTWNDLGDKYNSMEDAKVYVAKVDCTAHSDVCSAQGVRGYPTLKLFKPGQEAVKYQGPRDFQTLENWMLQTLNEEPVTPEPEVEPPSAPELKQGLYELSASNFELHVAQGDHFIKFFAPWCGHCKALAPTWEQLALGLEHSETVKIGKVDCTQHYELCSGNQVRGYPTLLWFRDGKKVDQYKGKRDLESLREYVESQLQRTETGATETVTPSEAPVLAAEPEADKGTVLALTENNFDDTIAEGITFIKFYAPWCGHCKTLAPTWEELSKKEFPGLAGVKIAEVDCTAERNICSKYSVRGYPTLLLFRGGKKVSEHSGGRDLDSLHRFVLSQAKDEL
Chain of cysteines in MDA-MB-231 and Ramos cells (Homo sapiens, UniProt Q9Y3D2) (Q9Y3D2 21-182): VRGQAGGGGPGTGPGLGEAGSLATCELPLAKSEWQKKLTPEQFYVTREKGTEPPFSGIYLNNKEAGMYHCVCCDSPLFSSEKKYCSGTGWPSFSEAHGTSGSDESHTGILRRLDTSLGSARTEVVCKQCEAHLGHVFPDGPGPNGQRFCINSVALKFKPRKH
Chain of cysteines in MDA-MB-231 and Ramos cells (Homo sapiens, UniProt P53634) (P53634 25-463): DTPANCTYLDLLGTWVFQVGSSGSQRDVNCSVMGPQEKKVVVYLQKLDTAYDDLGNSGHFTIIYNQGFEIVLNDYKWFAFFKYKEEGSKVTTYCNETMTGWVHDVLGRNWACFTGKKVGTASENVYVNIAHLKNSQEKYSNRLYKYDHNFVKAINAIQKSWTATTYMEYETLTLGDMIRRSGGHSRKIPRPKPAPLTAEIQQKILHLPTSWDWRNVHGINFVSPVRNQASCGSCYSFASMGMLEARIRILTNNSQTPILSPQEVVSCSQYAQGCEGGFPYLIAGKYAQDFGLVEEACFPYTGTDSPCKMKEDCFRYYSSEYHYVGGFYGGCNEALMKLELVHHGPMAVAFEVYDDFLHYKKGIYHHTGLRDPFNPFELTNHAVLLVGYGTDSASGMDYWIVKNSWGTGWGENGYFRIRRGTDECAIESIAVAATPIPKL
Chain of cysteines in MDA-MB-231 and Ramos cells (Homo sapiens, UniProt Q96RP9) (Q96RP9 37-751): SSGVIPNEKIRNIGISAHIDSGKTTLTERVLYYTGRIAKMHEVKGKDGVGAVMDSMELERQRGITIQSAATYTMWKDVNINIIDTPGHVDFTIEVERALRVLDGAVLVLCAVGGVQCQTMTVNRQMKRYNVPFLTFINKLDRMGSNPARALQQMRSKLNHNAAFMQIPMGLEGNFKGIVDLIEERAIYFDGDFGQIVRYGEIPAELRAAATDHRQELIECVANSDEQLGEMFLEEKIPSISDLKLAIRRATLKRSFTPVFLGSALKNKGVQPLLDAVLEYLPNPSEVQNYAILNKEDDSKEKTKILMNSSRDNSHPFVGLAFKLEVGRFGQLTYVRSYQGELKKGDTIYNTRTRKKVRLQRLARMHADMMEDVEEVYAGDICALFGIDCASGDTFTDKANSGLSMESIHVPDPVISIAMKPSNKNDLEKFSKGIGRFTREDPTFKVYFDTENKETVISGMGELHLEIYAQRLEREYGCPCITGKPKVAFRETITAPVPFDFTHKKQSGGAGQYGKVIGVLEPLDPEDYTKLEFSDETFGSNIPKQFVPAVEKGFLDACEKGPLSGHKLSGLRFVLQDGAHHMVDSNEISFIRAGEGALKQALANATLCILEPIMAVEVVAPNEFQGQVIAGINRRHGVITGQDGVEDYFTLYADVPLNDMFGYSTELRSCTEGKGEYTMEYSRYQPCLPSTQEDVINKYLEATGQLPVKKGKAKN

In the case of COc1ccc2c(c1)CCCN2C(=O)CCl [compound 2], the “isoTOP-ABPP reactivity P24468_C326 NR2F2” value ([1]; 200 μM, insitu, 231) is reported as 20.0, the “isoTOP-ABPP reactivity Q9Y570_C381 PPME1” value ([2]; 200 μM, insitu, 231) is reported as 12.6 and the “isoTOP-ABPP reactivity P53634_C258 CTSC” value ([3]; 200 μM, insitu, 231) is reported as 0.9. For the same compound, the “isoTOP-ABPP reactivity Q9Y676_C128 MRPS18B” value ([4]; 200 μM, insitu, 231) was 10.2 and the “isoTOP-ABPP reactivity Q9Y5Y2_C72 NUBP2” value ([5]; 200 μM, insitu, 231) was 5.3.

For COc1ccc(C2CC(c3cccs3)=NN2C(=O)CCl)cc1 (stereo not drawn) [compound 4], the “isoTOP-ABPP reactivity Q8NBS9_C350 TXNDC5” value ([6]; 100 μM in situ 231) was 2.4, the “isoTOP-ABPP reactivity Q96RP9_C153 GFM1” value ([7]; 100 μM in situ 231) was 1.0 and the “isoTOP-ABPP reactivity P24468_C326 NR2F2” value ([1]; 100 μM in situ 231) was 20.0. For the same compound, the “isoTOP-ABPP reactivity Q9Y570_C381 PPME1” value ([2]; 100 μM in situ 231) was 1.1, the “isoTOP-ABPP reactivity Q9Y3D2_C105 MSRB2” value ([8]; 100 μM in situ 231) was 20.0 and the “isoTOP-ABPP reactivity Q96RU2_C171 USP28” value ([9]; 100 μM in situ 231) was 20.0. The “isoTOP-ABPP reactivity P53634_C258 CTSC” value ([3]; 100 μM in situ 231) was 1.2 and the “isoTOP-ABPP reactivity Q9Y676_C128 MRPS18B” value ([4]; 100 μM in situ 231) was 2.3.

For COc1cc2c(cc1OC)CN(C(=O)CCl)CC2 [compound 8], the “isoTOP-ABPP reactivity P24468_C326 NR2F2” value ([1]; 200 μM, insitu, 231) was 20.0, the “isoTOP-ABPP reactivity Q9Y3D2_C105 MSRB2” value ([8]; 200 μM, insitu, 231) was 20.0 and the “isoTOP-ABPP reactivity Q96RU2_C171 USP28” value ([9]; 200 μM, insitu, 231) was 1.2. For the same compound, the “isoTOP-ABPP reactivity Q9Y676_C128 MRPS18B” value ([4]; 200 μM, insitu, 231) was 1.0.

O=C(CCl)N1CCC(Cc2ccccc2)CC1 [compound 9] was tested, and the “isoTOP-ABPP reactivity Q8NBS9_C350 TXNDC5” value ([6]; 200 μM, insitu, 231) was 1.7, the “isoTOP-ABPP reactivity Q9Y570_C381 PPME1” value ([2]; 200 μM, insitu, 231) was 20.0 and the “isoTOP-ABPP reactivity O00244_C12 ATOX1” value ([10]; 200 μM, insitu, 231) was 4.7. The “isoTOP-ABPP reactivity Q9Y5Y2_C72 NUBP2” value ([5]; 200 μM, insitu, 231) was 4.0.

With O=C(CCl)N1CCN(S(=O)(=O)c2ccccc2F)CC1 [compound 10] the “isoTOP-ABPP ratio Q8NBS9_C350” value ([6]; 200 μM, insitu, ramos) was 1.4, the “isoTOP-ABPP ratio, cysteine Q96RP9_C153” value [7]; 231 was 14.8 and the “isoTOP-ABPP ratio, cysteine P24468_C326” value ([1]; 200 μM, insitu, 231) was 20.0. For the same compound, the “isoTOP-ABPP ratio, cysteine Q9Y570_C381” value ([2]; 200 μM, insitu, 231) was 4.7, the “isoTOP-ABPP ratio, cysteine Q9Y3D2_C105” value ([8]; 200 μM, insitu, 231) was 20.0 and the “isoTOP-ABPP ratio, cysteine O00244_C12” value ([10]; 200 μM, insitu, 231) was 2.1. The “isoTOP-ABPP ratio Q8WWI1_C228” value ([11]; 200 μM, insitu, 231) was 17.2, the “isoTOP-ABPP ratio, cysteine P53634_C258” value ([3]; 200 μM, insitu, 231) was 5.5 and the “isoTOP-ABPP ratio Q9Y676_C128” value ([4]; 200 μM, insitu, 231) was 2.9. For the same compound, the “isoTOP-ABPP ratio, cysteine Q9Y5Y2_C72” value ([5]; 200 μM, insitu, 231) was 1.3.

With Cn1cc(S(=O)(=O)N2CCOCC2)cc1C(=O)NC(=O)CCl [compound 11] the “isoTOP-ABPP ratio Q8NBS9_C350” value ([6]; 100 μM in situ 231) was 3.4, the “isoTOP-ABPP ratio, cysteine P24468_C326” value ([1]; 100 μM in situ 231) was 0.9 and the “isoTOP-ABPP ratio, cysteine Q9Y3D2_C105” value ([8]; 100 μM in situ 231) was 1.3. The “isoTOP-ABPP ratio, cysteine O00244_C12” value ([10]; 100 μM in situ 231) was 0.7, the “isoTOP-ABPP ratio, cysteine Q96RU2_C171” value ([9]; 100 μM in situ 231) was 2.2 and the “isoTOP-ABPP ratio Q8WWI1_C228” value ([11]; 100 μM in situ 231) was 1.3. For the same compound, the “isoTOP-ABPP ratio Q9Y676_C128” value ([4]; 100 μM in situ 231) was 0.8 and the “isoTOP-ABPP ratio, cysteine Q9Y5Y2_C72” value ([5]; 100 μM in situ 231) was 0.5.

With O=C(CCl)NC(=O)NC12CC3CC(CC(C3)C1)C2 [compound 12] the “isoTOP-ABPP ratio Q8NBS9_C350” value ([6]; 200 μM, insitu, 231) was 9.4, the “isoTOP-ABPP ratio, cysteine Q96RP9_C153” value [7]; 231 was 20.0 and the “isoTOP-ABPP ratio, cysteine Q9Y3D2_C105” value ([8]; 200 μM, insitu, 231) was 20.0. For the same compound, the “isoTOP-ABPP ratio, cysteine Q96RU2_C171” value ([9]; 200 μM, insitu, 231) was 20.0, the “isoTOP-ABPP ratio Q8WWI1_C228” value ([11]; 200 μM, insitu, 231) was 20.0 and the “isoTOP-ABPP ratio, cysteine P53634_C258” value ([3]; 200 μM, insitu, 231) was 13.4. For the same compound, the “isoTOP-ABPP ratio Q9Y676_C128” value ([4]; 200 μM, insitu, 231) was 1.4.

For O=C(CCl)NCCc1c[nH]c2ccccc12 [compound 13], the “isoTOP-ABPP ratio Q8NBS9_C350” value ([6]; 200 μM, insitu, 231) was 1.3, the “isoTOP-ABPP ratio, cysteine Q96RP9_C153” value ([7]; ramos) was 0.8 and the “isoTOP-ABPP ratio, cysteine Q9Y570_C381” value ([2]; 200 μM, insitu, 231) was 0.9. For the same compound, the “isoTOP-ABPP ratio, cysteine O00244_C12” value ([10]; 200 μM, insitu, 231) was 1.5, the “isoTOP-ABPP ratio Q8WWI1_C228” value ([11]; 200 μM, insitu, 231) was 2.0 and the “isoTOP-ABPP ratio Q8WWI1_C228” value ([11]; 200 μM, insitu, ramos) was 1.0. The “isoTOP-ABPP ratio, cysteine P53634_C258” value ([3]; 200 μM, insitu, 231) was 1.6 and the “isoTOP-ABPP ratio, cysteine Q9Y5Y2_C72” value ([5]; 200 μM, insitu, ramos) was 1.5.
